ChEMBL document CHEMBL3991601, “The target landscape of clinical kinase drugs” (Science, 2017)
Calls of active or inactive are those of the source.

Legend:
[1] = target: Choline-phosphate cytidylyltransferase A (Homo sapiens, UniProt P49585)
[2] = target: T1, Electron transfer flavoprotein subunit beta (Homo sapiens, UniProt P38117)
T1 sequence (P38117 whole entry): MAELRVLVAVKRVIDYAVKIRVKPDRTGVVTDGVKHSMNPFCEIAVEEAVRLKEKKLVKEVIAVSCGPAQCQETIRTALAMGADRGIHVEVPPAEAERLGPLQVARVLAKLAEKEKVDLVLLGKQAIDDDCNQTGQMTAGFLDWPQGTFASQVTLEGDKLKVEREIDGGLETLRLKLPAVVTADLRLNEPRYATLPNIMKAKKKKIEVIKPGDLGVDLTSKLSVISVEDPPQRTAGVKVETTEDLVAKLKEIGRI

[3] = target: Serine/threonine-protein kinase N3 (Homo sapiens, UniProt Q6P5Z2)
Sequence of Serine/threonine-protein kinase N3 (Q6P5Z2 whole entry): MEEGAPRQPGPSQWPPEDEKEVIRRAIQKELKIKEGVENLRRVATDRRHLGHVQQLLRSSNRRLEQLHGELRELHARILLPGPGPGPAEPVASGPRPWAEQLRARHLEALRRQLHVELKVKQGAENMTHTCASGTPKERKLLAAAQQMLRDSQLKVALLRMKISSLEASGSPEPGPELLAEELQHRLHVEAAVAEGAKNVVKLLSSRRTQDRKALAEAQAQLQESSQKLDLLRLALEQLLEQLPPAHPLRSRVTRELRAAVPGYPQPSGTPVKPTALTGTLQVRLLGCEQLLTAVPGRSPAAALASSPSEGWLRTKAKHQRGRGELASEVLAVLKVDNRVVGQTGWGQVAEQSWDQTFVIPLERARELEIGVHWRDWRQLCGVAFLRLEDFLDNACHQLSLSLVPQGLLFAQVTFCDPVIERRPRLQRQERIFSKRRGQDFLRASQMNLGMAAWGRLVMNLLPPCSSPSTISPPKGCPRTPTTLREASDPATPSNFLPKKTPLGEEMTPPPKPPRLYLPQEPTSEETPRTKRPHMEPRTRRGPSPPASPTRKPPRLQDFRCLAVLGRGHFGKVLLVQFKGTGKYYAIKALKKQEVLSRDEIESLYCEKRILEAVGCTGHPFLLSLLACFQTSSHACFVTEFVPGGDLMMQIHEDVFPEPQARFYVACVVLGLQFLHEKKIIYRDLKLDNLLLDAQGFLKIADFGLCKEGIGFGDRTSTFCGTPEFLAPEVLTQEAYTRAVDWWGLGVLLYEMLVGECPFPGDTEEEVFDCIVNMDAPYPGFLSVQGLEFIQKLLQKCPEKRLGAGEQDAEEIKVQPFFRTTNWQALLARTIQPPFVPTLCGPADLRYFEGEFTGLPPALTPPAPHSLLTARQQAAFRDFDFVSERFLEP

[4] = target: T2, Long-chain-fatty-acid--CoA ligase 5 (Homo sapiens, UniProt Q9ULC5)
T2 sequence (Q9ULC5 whole entry): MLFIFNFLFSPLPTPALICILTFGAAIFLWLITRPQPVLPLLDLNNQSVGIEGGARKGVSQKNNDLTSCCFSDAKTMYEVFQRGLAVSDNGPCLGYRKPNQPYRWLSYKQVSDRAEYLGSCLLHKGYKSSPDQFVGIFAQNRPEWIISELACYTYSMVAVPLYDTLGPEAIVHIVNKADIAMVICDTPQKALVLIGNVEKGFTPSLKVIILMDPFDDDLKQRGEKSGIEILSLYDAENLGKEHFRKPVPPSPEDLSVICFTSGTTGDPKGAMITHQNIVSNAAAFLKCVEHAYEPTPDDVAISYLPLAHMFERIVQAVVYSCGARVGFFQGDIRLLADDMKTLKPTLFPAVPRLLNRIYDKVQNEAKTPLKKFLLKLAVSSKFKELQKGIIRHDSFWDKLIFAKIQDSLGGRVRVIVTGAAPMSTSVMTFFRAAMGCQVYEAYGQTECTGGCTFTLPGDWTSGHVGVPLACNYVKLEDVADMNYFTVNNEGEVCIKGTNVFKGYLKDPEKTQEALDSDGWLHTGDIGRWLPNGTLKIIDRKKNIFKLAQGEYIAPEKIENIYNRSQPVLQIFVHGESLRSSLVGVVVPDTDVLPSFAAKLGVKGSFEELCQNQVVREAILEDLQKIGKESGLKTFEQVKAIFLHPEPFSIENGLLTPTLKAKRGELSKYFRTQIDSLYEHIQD

[5] = target: Dual specificity protein kinase CLK3 (Homo sapiens, UniProt P49761); format: subcellular, K-562, COLO 205, SK-N-BE(2) and MV-4-11, Cell lysate; settings: read-out: Kd apparent
Sequence of Dual specificity protein kinase CLK3 (P49761 whole entry): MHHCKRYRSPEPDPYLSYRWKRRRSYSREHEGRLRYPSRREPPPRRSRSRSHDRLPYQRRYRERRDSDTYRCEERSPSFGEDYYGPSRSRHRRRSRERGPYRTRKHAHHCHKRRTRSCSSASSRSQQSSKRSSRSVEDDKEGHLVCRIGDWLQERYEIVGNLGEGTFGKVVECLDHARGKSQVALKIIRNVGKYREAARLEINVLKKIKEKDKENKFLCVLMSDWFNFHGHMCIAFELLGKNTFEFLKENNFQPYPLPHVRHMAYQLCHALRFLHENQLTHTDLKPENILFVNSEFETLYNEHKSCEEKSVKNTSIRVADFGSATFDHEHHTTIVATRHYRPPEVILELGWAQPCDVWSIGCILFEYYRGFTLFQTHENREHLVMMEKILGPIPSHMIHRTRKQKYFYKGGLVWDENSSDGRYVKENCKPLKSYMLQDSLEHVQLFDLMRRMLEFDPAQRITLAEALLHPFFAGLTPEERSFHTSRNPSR

[6] = target: T3, Dual specificity protein kinase TTK (Homo sapiens, UniProt P33981)
T3 sequence (P33981 whole entry): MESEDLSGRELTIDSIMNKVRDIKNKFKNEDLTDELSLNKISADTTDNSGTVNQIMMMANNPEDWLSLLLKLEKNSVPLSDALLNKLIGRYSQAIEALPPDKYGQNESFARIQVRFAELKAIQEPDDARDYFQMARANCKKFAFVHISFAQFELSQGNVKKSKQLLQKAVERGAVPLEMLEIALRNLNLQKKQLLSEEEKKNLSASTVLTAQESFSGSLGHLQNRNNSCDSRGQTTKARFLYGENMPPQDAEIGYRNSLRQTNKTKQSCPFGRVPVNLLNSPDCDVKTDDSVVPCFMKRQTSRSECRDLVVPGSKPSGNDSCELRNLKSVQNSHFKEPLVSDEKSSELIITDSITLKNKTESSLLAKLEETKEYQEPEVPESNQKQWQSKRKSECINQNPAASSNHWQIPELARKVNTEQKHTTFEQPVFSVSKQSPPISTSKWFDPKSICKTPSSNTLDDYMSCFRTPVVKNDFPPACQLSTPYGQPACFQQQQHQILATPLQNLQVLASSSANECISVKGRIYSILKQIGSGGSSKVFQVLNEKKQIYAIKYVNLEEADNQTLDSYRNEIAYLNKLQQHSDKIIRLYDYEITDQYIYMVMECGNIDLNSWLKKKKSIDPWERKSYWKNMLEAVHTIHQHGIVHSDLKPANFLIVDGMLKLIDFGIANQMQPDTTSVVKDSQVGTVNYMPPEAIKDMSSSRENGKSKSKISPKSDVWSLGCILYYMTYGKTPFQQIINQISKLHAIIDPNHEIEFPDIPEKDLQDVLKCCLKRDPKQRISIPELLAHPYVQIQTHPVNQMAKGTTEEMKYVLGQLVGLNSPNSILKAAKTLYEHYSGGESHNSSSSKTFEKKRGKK

[7] = target: Serine/threonine-protein kinase PAK 6 (Homo sapiens, UniProt Q9NQU5)
Sequence of Serine/threonine-protein kinase PAK 6 (Q9NQU5 whole entry): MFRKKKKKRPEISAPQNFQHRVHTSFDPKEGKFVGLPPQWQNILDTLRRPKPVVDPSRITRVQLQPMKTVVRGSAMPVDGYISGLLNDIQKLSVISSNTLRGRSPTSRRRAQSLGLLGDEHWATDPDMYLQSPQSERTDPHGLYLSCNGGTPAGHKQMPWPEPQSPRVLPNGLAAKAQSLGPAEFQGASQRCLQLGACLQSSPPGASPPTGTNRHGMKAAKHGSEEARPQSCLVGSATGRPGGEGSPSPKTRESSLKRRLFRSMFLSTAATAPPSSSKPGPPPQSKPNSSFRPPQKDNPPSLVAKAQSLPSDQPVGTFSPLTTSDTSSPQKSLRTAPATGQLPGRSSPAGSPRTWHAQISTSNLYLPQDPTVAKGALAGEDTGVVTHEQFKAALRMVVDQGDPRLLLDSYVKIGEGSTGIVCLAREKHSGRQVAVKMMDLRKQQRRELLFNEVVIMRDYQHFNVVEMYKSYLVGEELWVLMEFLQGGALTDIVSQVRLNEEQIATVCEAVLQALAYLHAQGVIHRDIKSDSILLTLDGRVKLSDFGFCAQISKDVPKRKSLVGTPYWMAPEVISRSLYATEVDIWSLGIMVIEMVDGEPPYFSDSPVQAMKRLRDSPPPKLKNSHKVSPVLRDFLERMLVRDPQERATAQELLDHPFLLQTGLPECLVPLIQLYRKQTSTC

Measured: Kd
Note: in the data inactive means no Kd found up to 30 µM.

Sequence of Choline-phosphate cytidylyltransferase A (P49585 whole entry): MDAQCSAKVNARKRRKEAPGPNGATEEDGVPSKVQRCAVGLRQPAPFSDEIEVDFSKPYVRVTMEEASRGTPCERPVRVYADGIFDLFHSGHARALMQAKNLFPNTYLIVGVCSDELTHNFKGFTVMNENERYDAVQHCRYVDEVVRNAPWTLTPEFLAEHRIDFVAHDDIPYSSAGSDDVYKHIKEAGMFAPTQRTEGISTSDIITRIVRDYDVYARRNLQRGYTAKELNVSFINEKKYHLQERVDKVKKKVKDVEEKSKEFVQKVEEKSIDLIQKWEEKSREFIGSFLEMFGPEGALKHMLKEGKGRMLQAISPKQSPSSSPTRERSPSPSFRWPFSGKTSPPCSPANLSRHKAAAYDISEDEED

CC(=O)c1cnc2ccc(-c3cc(Cl)c(O)c(Cl)c3)nc2c1N[C@H]1CC[C@H](CN(C)C)CC1
inactive: [1] > 30 µM | [2] > 30 µM | [3] > 30 µM

CNC(=O)c1ccccc1Sc1ccc2c(/C=C/c3ccccn3)n[nH]c2c1 [AXITINIB]
inactive: [1] > 30 µM | [4] > 30 µM | [2] > 30 µM | [3] > 30 µM

NC(=O)Nc1cc(-c2cccc(F)c2)sc1C(=O)N[C@H]1CCCNC1 [AZD-7762]
inactive: [4] > 30 µM | [5] > 30 µM | [6] > 30 µM | [2] > 30 µM

Cn1cnc2c(F)c(Nc3ccc(Br)cc3F)c(C(=O)NOCCO)cc21 [BINIMETINIB]
inactive: [1] > 30 µM | [4] > 30 µM | [2] > 30 µM | [3] > 30 µM

CCn1c(C(=O)N(C2CC2)C2CC2)cc2c3c(ncn3C)c(Nc3cc(C)n(C)n3)nc21 [BMS-911543]
inactive: [7] > 30 µM | [4] > 30 µM | [5] > 30 µM | [6] > 30 µM | [2] > 30 µM

COc1cc2ncnc(Oc3cccc(NC(=O)Nc4cc(C(C)(C)C(F)(F)F)on4)c3)c2cc1OC [CEP-32496]
inactive: [5] > 30 µM | [6] > 30 µM | [2] > 30 µM | [3] > 30 µM

O=C(Nc1nc2cccc(-c3ccc(CN4CCS(=O)(=O)CC4)cc3)n2n1)C1CC1 [FILGOTINIB]
inactive: [1] > 30 µM | [7] > 30 µM | [2] > 30 µM

C[C@@H](Oc1cc(-n2cnc3ccc(CN4CCN(C)CC4)cc32)sc1C(N)=O)c1ccccc1C(F)(F)F [GSK-461364]
inactive: [1] > 30 µM | [4] > 30 µM | [2] > 30 µM | [3] > 30 µM

NC(=O)c1c(OCc2c(F)cc(Br)cc2F)nsc1NC(=O)NCCCCN1CCCC1 [OSI-632]
inactive: [7] > 30 µM | [4] > 30 µM | [5] > 30 µM | [6] > 30 µM | [2] > 30 µM | [3] > 30 µM

CCCCCCCCCCCCCCCCCCOP(=O)([O-])OC1CC[N+](C)(C)CC1 [PERIFOSINE]
inactive: [1] > 30 µM | [4] > 30 µM | [2] > 30 µM

CO[C@H]1C[C@@H]2CC[C@@H](C)[C@@](O)(O2)C(=O)C(=O)N2CCCC[C@H]2C(=O)O[C@H]([C@H](C)C[C@@H]2CC[C@@H](OP(C)(C)=O)[C@H](OC)C2)CC(=O)[C@H](C)/C=C(\C)[C@@H](O)[C@@H](OC)C(=O)[C@H](C)C[C@H](C)/C=C/C=C/C=C/1C [RIDAFOROLIMUS]
inactive: [4] > 30 µM | [5] > 30 µM | [6] > 30 µM | [2] > 30 µM | [3] > 30 µM

N#CC1(c2ccc(NC(=O)c3cccnc3NCc3ccncc3)cc2)CCCC1 [RIVOCERANIB]
inactive: [7] > 30 µM | [4] > 30 µM | [5] > 30 µM | [6] > 30 µM | [2] > 30 µM

CN1CCN(CCOc2cc(OC3CCOCC3)c3c(Nc4c(Cl)ccc5c4OCO5)ncnc3c2)CC1 [SARACATINIB]
inactive: [7] > 30 µM | [4] > 30 µM | [5] > 30 µM | [6] > 30 µM | [3] > 30 µM

Cc1cc(Nc2ncnc3ccc(NC4=NC(C)(C)CO4)cc23)ccc1Oc1ccn2ncnc2c1 [TUCATINIB]
inactive: [1] > 30 µM | [3] > 30 µM
